{"source": "patent US9636299B2", "about": "“Method for treating diabetic retinopathy” (XAVIER UNIVERSITY OF LOUISIANA, priority 2012, dated 2017)", "key": {"heparanase": {"test_system": "heparanase", "test": "Heparanase expression in high glucose-treated hRMECs (Western blot)", "assay_type": "cell-based, human", "conditions": "30 mM glucose 72 hours, 50 or 100 μM apoEdp", "description": "Cell Culture. Primary cultures of human retina microvascular endothelial cells (hRMECs) were purchased from the Applied Cell Biology Research Institute and grown on attachment factor-coated plates in cell systems complete (CSC) medium (Cell Systems, Kirkland, Wash.) supplemented with 20% fetal bovine serum, culture boost (animal derived growth factors) and bac-off (antibiotics). The primary hRMECs were used in their passages 4 to 6. The 18-a.a. apoE mimetic peptide apoEdp (SEQ ID NO:3, Ac-LRKLRKRLLLRKLRKRLL-amide), derived from the human apolipoprotein E receptor-binding region (see SED ID NO:1) between residues 141 and 149, was synthesized (Genemed, Arlington, Tex.) with a purity of greater than 95%. The apoEdp peptide was dissolved in phosphate-buffered saline (“PBS”) at a concentration appropriate for further experimental use. […]\nWestern Blotting. […] The total protein concentration was determined using a BCA protein assay kit (Pierce, Rockford, Ill.). […] To ensure the equal loading of protein in each lane, each membrane was stripped and re-probed with an antibody against β-actin, and the chemiluminescence was detected as described previously. After scanning the blots with a flatbed scanner, band intensities were analyzed using ImageJ (NIH) and the relative intensity values were normalized to control values. […]"}, "VEGF": {"test_system": "VEGF", "test": "Streptozotocin-induced diabetic mice, retinal VEGF protein by Western blot", "assay_type": "in vivo, mouse", "conditions": "14 days", "method": "Streptozotocin (STZ) induced diabetes. Twelve week old C57Bl/6 mice were used for this study. Mice were induced to have diabetes by intraperitoneal injection of 170 μg/g of streptozotocin (Sigma Aldrich, St. Louis, Mo.). Controls were injected with a vehicle (0.01M sodium citrate buffer). On the third day after STZ treatment, mice tail veins were bled to test the hyperglycemic status using blood sugar detection kit (Lifescan; Johnson & Johnson, Milpitas, Calif.). Mice with blood sugar levels of >300 mg/dL on the third day after STZ treatment were considered diabetic. Eye drop treatment containing 1% apoEdp or vehicle PBS was continued 4 times a day for 14 consecutive days. Intra-peritoneal (i/p) injection containing 40 mg/kg of apoEdp or vehicle control PBS was administered once daily for 14 consecutive days. On the 15th day post-treatment, mice were euthanized, their eyes enucleated, and the retinas dissected out to use for mRNA or Western blot analysis.\nUpregulation of VEGF expression is reported as one of the reasons for the loss of tight junction proteins in diabetic mice (20).\nIncreased vascular permeability in diabetic retinopathy (DR) is reported to result in a concomitant increase of VEGF. The VEGF pathway is known to play a role in breakdown of the BRB through a mechanism involving the down regulation of tight junction proteins in the retinal microvasculature (20)."}}, "note": "Residues, ends and D or L forms follow the SMILES beside them.", "data": [{"compound": "CC(=O)N[C@@H](CC(C)C)C(=O)N[C@@H](CCCNC(=N)N)C(=O)N[C@@H](CCCCN)C(=O)N[C@@H](CC(C)C)C(=O)N[C@@H](CCCNC(=N)N)C(=O)N[C@@H](CCCCN)C(=O)N[C@@H](CCCNC(=N)N)C(=O)N[C@@H](CC(C)C)C(=O)N[C@@H](CC(C)C)C(=O)N[C@@H](CC(C)C)C(=O)N[C@@H](CCCNC(=N)N)C(=O)N[C@@H](CCCCN)C(=O)N[C@@H](CC(C)C)C(=O)N[C@@H](CCCNC(=N)N)C(=O)N[C@@H](CCCCN)C(=O)N[C@@H](CCCNC(=N)N)C(=O)N[C@@H](CC(C)C)C(=O)N[C@@H](CC(C)C)C(N)=O", "note": "[apoEdp, Ac-LRKLRKRLLLRKLRKRLL-amide] (Ac-LRKLRKRLLLRKLRKRLL-NH2)", "values": [{"measurement": "High glucose-induced expression of heparanase", "setting": "heparanase", "value": "suppressed the expression"}, {"measurement": "VEGF expression of retina", "setting": "VEGF; eye drop treatment, vs untreated diabetic", "value": "not significantly different from untreated diabetic mice"}, {"measurement": "VEGF expression of retina", "setting": "VEGF; i/p injection of apoEdp, vs diabetic untreated", "value": "significantly reduced VEGF expression"}]}]}
